This assay has as its target T1, PDE4D7 (Homo sapiens, UniProt Q08499).
T1 construct: purchased BPS BioSciences 60708
As to the kind of experiment: PDE4D7 TR-FRET assay. Conditions: TR-FRET assay kit, FAM-cAMP substrate. It is filed as biochemical.

Consider 3 compounds from patent publication US20230265089A1, “QUINOLINE DERIVATIVES, PHARMACEUTICALLY ACCEPTABLE SALTS, AND METHODS OF USE THEREOF” (vTv Therapeutics LLC, priority 2020, published 2023).

T1 sequence (Q08499 1-748 isoform Q08499-11): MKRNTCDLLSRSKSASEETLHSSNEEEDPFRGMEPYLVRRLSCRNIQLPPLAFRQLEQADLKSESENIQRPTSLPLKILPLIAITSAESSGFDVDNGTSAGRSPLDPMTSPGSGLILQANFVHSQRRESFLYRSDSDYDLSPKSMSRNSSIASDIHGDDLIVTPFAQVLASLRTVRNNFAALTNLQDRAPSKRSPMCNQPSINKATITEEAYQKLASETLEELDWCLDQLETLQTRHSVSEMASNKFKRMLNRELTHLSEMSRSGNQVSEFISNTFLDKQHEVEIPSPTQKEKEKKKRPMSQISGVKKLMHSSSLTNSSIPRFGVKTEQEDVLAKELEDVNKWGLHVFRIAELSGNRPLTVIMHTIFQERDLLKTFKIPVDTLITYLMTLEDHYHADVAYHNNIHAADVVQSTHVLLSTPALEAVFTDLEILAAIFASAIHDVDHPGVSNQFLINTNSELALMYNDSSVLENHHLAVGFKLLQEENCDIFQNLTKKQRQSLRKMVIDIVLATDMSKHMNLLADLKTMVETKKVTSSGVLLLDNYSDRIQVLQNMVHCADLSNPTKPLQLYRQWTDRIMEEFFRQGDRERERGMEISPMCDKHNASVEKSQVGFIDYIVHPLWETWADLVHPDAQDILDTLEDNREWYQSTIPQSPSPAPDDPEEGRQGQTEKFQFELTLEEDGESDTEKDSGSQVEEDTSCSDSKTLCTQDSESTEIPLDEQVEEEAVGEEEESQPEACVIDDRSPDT
Description: According to BPS Biosciences product information, the PDE4D7 TR-FRET assay is designed for identification of inhibitors of PDE4D7 using TR-FRET (Time Resolved Fluorescence Resonance Energy Transfer) technology. The assay is based on the generation of FAM-labeled nucleotide monophosphates by the phosphodiesterase. These phosphate groups bind to terbium-labeled nanoparticles, resulting in energy transfer from the terbium to the FAM, which emits a fluorescent signal at 520 nm. The change in fluorescent intensity can be easily measured using a fluorescence plate reader.
The general assay protocol for PDE4D7 TR-FRET assay used to obtain the experimental data described below includes two steps: First, the fluorescent-labeled cAMP is incubated with a sample containing PDE4D7 for 1 hour. Second, a binding agent and a terbium donor are added to the reaction mix and incubated for 1 hour. Then, fluorescence intensity can be measured using a fluorescence reader. A detailed protocol is as follows
Step 1: Dilute 20 μM FAM-Cyclic-3′,5′-AMP substrate stock solution 100-fold with PDE buffer to make a 200 nM solution. Make only a sufficient quantity needed for the assay; store remaining stock solution in aliquots at −20° C. Add 25 μl of FAM-Cyclic-3′,5′-AMP (200 nM) to each well designated “Substrate Control”, “Positive Control”, and “Test Inhibitor”. Add 25 μl of PDE assay buffer to each well designated “Tb-only Control”. Add 5 μl of inhibitor solution to each well designated “Test Inhibitor”. Add 5 μl of the same solution without inhibitor (inhibitor buffer) to the “Tb-only Control”, “Substrate Control” and “Positive Control”. Thaw PDE4D7 on ice. Upon first thaw, briefly spin tube containing enzyme to recover the full contents of the tube. […]
Step 2: Make binding dilution buffer by mixing equal volumes of Binding buffer A and Binding buffer B. For example, mix 1 ml Binding buffer A with 1 ml Binding buffer B. Mix binding agent thoroughly and dilute binding agent 1:50 with binding dilution buffer made in Step 1. […] Read the fluorescent intensity in a microtiter-plate reader capable of TR-FRET.

Compound `COc1cccc2c1ncc1c(=O)n([C@H]3CC[C@H](C(=O)O)CC3)c(=O)n(-c3cccc(Cl)c3)c12` [COMPOUND I * HCI (Batch 3), trans-4-[1-(3-chlorophenyl)-7-methoxy-2,4-dioxo-pyrimido[5,4-c]quinolin-3-yl]cyclohexanecarboxylic acid] yielded an IC50 of 1.1 nM.
`COc1cccc2c1ncc1c(=O)n([C@H]3CC[C@H](C(=O)O)CC3)c(=O)n(-c3cccc(Cl)c3)c12` [COMPOUND I * HCI (Batch 2), trans-4-[1-(3-chlorophenyl)-7-methoxy-2,4-dioxo-pyrimido[5,4-c]quinolin-3-yl]cyclohexanecarboxylic acid] gave an IC50 of 3.3 nM.
The result for `COc1cccc2c1ncc1c(=O)n([C@H]3CC[C@H](C(=O)O)CC3)c(=O)n(-c3cccc(Cl)c3)c12` [COMPOUND I * HCI (Batch 1), trans-4-[1-(3-chlorophenyl)-7-methoxy-2,4-dioxo-pyrimido[5,4-c]quinolin-3-yl]cyclohexanecarboxylic acid] reads 1.5 nM.

As usually defined, the IC50 is the concentration that gives 50% inhibition. A lower IC50 goes with greater potency in that assay.
